From US20110009265A1, “Herbicidal Compositions Comprising Pyroxasulfone” (BASF SE, priority 2008, published 2011)
Read-outs that look alike come from different tables or passages of the source.

Legend:
harmful plants = conditions: known from Y. Yamaji et al., 2006; cited from earlier work
Galium aparine (GALAP) = experiment: greenhouse pre-emergence herbicidal activity; format: in vivo; conditions: read-out: observed % activity; for inhibition at 6.25 g/ha: 6.25 g ai/ha; for inhibition at 25 g/ha: 25 g ai/ha; for inhibition at 50 g/ha: 50 g ai/ha
Text: (§1) For the pre-emergence treatment, directly after sowing the active compounds, which had been suspended or emulsified in water, were applied by means of finely distributed nozzles. The containers were irrigated gently to promote germination and growth and subsequently covered with transparent plastic hoods until plant had rooted. This cover caused uniform germination of the tests plants, unless this was adversely affected by active compounds.
(§2) The respective herbicides A and/or safener were formulated as 10% by weight strength suspension concentrate and introduced to the spray liquor with the amount of solvent system used for applying the active compound. Herbicide B and/or safener were used as commercially available formulations and introduced to the spray liquor with the amount of solvent system used for applying the active compound. In the examples, the solvent used was water.
(§3) Pendimethalin was used as a commercial aqueous suspension concentrate having an active ingredient concentration of 400 g/l.
(§4) The test period extended over 21 days. During this time, the plants were tended, and their response to the treatments with active compound was evaluated.
(§5) The evaluation for the damage caused by the chemical compositions was carried out using a scale from 0 to 100%, compared to the untreated control plants. Here, 0 means no damage and 100 means complete destruction of the plants.
(§6) The value E, which is to be expected if the activity of the individual compounds is just additive, was calculated using the method of S. R. Colby (1967) “Calculating synergistic and antagonistic responses of herbicide combinations”, Weeds 15, p. 22 ff.
(§7) where • X=effect in percent using herbicide A at an application rate a; • Y=effect in percent using herbicide B at an application rate b; • E=expected effect (in %) of A+B at application rates a+b.
(§8) If the value observed in this manner is higher than the value E calculated according to Colby, a synergistic effect is present.

Bromus inermis (BROIN) = experiment: greenhouse pre-emergence herbicidal activity; format: in vivo; conditions: read-out: observed % activity; for inhibition at 6.25 g/ha: 6.25 g ai/ha; for inhibition at 12.5 g/ha: 12.5 g ai/ha; for inhibition at 25 g/ha: 25 g ai/ha; for inhibition at 50 g/ha: 50 g ai/ha
Text: as §1, §2, §3, §4, §5, §6, §7, §8

[1] = system: Phalaris canariensis (PHACA); experiment: greenhouse pre-emergence herbicidal activity; format: in vivo; conditions: 6.25 g ai/ha, read-out: observed % activity
Text: as §1, §2, §3, §4, §5, §6, §7, §8

Avena fatua (AVEFA) = experiment: greenhouse pre-emergence herbicidal activity; format: in vivo; conditions: 50 g ai/ha, read-out: observed % activity
Text: as §1, §2, §3, §4, §5, §6, §7, §8

Veronica persica (VERPE) = experiment: greenhouse pre-emergence herbicidal activity; format: in vivo; conditions: read-out: observed % activity; for inhibition at 6.25 g/ha: 6.25 g ai/ha; for inhibition at 12.5 g/ha: 12.5 g ai/ha; for inhibition at 25 g/ha: 25 g ai/ha; for inhibition at 50 g/ha: 50 g ai/ha
Text: as §1, §2, §3, §4, §5, §6, §7, §8

Thlaspi arvense (THLAR) [2] = experiment: greenhouse pre-emergence herbicidal activity; format: in vivo; conditions: read-out: observed % activity; for inhibition at 12.5 g/ha: 12.5 g ai/ha; for inhibition at 50 g/ha: 50 g ai/ha
Text: as §1, §2, §3, §4, §5, §6, §7, §8

[3] = system: Capsella bursa-pastoris (CAPBP); experiment: greenhouse pre-emergence herbicidal activity; format: in vivo; conditions: read-out: observed % activity; for inhibition at 25 g/ha: 25 g ai/ha; for inhibition at 50 g/ha: 50 g ai/ha
Text: as §1, §2, §3, §4, §5, §6, §7, §8

[4] = system: Amaranthus retroflexus (AMARE); experiment: greenhouse post-emergence herbicidal activity; format: in vivo; conditions: 13 g ai/ha, 20 DAT
Text: (§9) For the post-emergence treatment, the test plants were first grown to a height of 3 to 20 cm, depending on the plant habit, and only then treated. Here, the herbicidal compositions were suspended or emulsified in water as distribution medium and sprayed using finely distributing nozzles.
as §2, §3, §4, §5, §6, §7, §8

[5] = system: Matricaria inermis (MATIN); experiment: greenhouse post-emergence herbicidal activity; format: in vivo; conditions: 50 g ai/ha, read-out: observed % activity
Text: as §9, §2, §3, §4, §5, §6, §7, §8

[6] = system: Alopecurus myosuroides (ALOMY); experiment: greenhouse post-emergence herbicidal activity; format: in vivo; conditions: 25 g ai/ha; for inhibition at 25 g/ha: Alopecurus myosuroides, read-out: observed % activity
Text: as §9, §2, §3, §4, §5, §6, §7, §8

[7] = system: Apera spica-venti (APESV); experiment: greenhouse post-emergence herbicidal activity; format: in vivo; conditions: 50 g ai/ha, 20 DAT
Text: as §9, §2, §3, §4, §5, §6, §7, §8

Lamium purpureum (LAMPU) = experiment: greenhouse post-emergence herbicidal activity; format: in vivo; conditions: 50 g ai/ha, 20 DAT
Text: as §9, §2, §3, §4, §5, §6, §7, §8

Stellaria media (STEME) = experiment: greenhouse post-emergence herbicidal activity; format: in vivo; conditions: 20 DAT
Text: as §9, §2, §3, §4, §5, §6, §7, §8

Viola arvensis (VIOAR) = experiment: greenhouse post-emergence herbicidal activity; format: in vivo; conditions: 25 g ai/ha, 20 DAT
Text: as §9, §2, §3, §4, §5, §6, §7, §8

Thlaspi arvense (THLAR) [8] = experiment: greenhouse post-emergence herbicidal activity; format: in vivo; conditions: for inhibition at 100 g/ha: Thlaspi arvense, read-out: observed % activity
Text: as §9, §2, §3, §4, §5, §6, §7, §8

[9] = system: Capsella bursa-pastoris (CAPBP); experiment: greenhouse post-emergence herbicidal activity; format: in vivo; conditions: 25 g ai/ha, 20 DAT
Text: as §9, §2, §3, §4, §5, §6, §7, §8

## Cn1nc(C(F)(F)F)c(CS(=O)(=O)C2=NOC(C)(C)C2)c1OC(F)F [pyroxasulfone, 3-[5-(difluoromethoxy)-1-methyl-3-(trifluoromethyl)pyrazol-4-ylmethylsulfonyl]-4,5-dihydro-5,5-dimethyl-1,2-oxazole]
Harmful plants
  post-emergence activity: only poor post-emergence activity
Galium aparine (GALAP); 192 h, 8 DAT
  inhibition at 6.25 g/ha: 30%
  inhibition at 25 g/ha: 60%
  inhibition at 50 g/ha: 60%
Galium aparine (GALAP); 480 h, 20 DAT
  inhibition at 6.25 g/ha: 20%
  inhibition at 25 g/ha: 75%
  inhibition at 50 g/ha: 80%
Bromus inermis (BROIN); 192 h, 8 DAT
  inhibition at 6.25 g/ha: 40%
  inhibition at 12.5 g/ha: 50%
  inhibition at 25 g/ha: 50%
  inhibition at 50 g/ha: 60%
Bromus inermis (BROIN); 480 h, 20 DAT
  inhibition at 6.25 g/ha: 35%
  inhibition at 12.5 g/ha: 60%
  inhibition at 25 g/ha: 60%
  inhibition at 50 g/ha: 75%
[1]; 192 h, 8 DAT
  inhibition at 6.25 g/ha: 40%
[1]; 480 h, 20 DAT
  inhibition at 6.25 g/ha: 40%
Avena fatua (AVEFA); 192 h, 8 DAT
  inhibition at 50 g/ha: 70%
Avena fatua (AVEFA); 480 h, 20 DAT
  inhibition at 50 g/ha: 85%
Veronica persica (VERPE); 192 h, 8 DAT
  inhibition at 6.25 g/ha: 45%
  inhibition at 12.5 g/ha: 60%
  inhibition at 25 g/ha: 60%
  inhibition at 50 g/ha: 60%
Veronica persica (VERPE); 480 h, 20 DAT
  inhibition at 6.25 g/ha: 70%
  inhibition at 12.5 g/ha: 90%
  inhibition at 25 g/ha: 85%
  inhibition at 50 g/ha: 90%
Thlaspi arvense (THLAR) [2]; 192 h, 8 DAT
  inhibition at 12.5 g/ha: 40%
  inhibition at 50 g/ha: 60%
Thlaspi arvense (THLAR) [2]; 480 h, 20 DAT
  inhibition at 12.5 g/ha: 30%
  inhibition at 50 g/ha: 80%
[3]; 192 h, 8 DAT
  inhibition at 25 g/ha: 60%
  inhibition at 50 g/ha: 60%
[3]; 480 h, 20 DAT
  inhibition at 25 g/ha: 95%
  inhibition at 50 g/ha: 95%
[4]
  observed activity in % destruction 20 days after treatment: 45%
[5]; 168 h, 7 DAT
  inhibition at 50 g/ha: 40%
[5]; 480 h, 20 DAT
  inhibition at 50 g/ha: 0%
[6]; 20 DAT
  observed activity in % destruction 20 days after treatment: 65%
[6]; 168 h, 7 DAT
  inhibition at 25 g/ha: 25%
[6]; 480 h, 20 DAT
  inhibition at 25 g/ha: 65%
[7]
  observed activity in % destruction 20 days after treatment: 85%
Lamium purpureum (LAMPU)
  observed activity in % destruction 20 days after treatment: 70%
Stellaria media (STEME); 50 g ai/ha
  observed activity in % destruction 20 days after treatment: 85%
Stellaria media (STEME); 100 g ai/ha
  observed activity in % destruction 20 days after treatment: 95%
Viola arvensis (VIOAR)
  observed activity in % destruction 20 days after treatment: 0%
Thlaspi arvense (THLAR) [8]; 25 g ai/ha, 20 DAT
  observed activity in % destruction 20 days after treatment: 50%
Thlaspi arvense (THLAR) [8]; 100 g ai/ha, 20 DAT
  observed activity in % destruction 20 days after treatment: 80%
Thlaspi arvense (THLAR) [8]; 168 h, 100 g ai/ha, 7 DAT
  inhibition at 100 g/ha: 70%
Thlaspi arvense (THLAR) [8]; 480 h, 100 g ai/ha, 20 DAT
  inhibition at 100 g/ha: 80%
[9]
  observed activity in % destruction 20 days after treatment: 35%
